Test results taken from patent US4062862A, “5-Benzyl-2-oxazolidone derivatives and a process for producing the same” (Nippon Chemiphar Co., Ltd., priority 1975, dated 1977).

What was measured:
mice [1] = experiment: Muscular relaxing effect, Righting Reflex Test (R.r), oral, mice; format: in vivo, dd Male mice; conditions: Mus musculus, read-out: Inhibition percent of the central muscular relaxing effect, R.r (Righting Reflex Test)
Method: (§1) dd Male mice weighing 18 to 22 g, one group consisting of 10 animals, were orally given the compounds (I) to (V) as indicated below suspended in 0.2% carboxymethylcellulose solution in a dose of 0.25ml/10g-body weight. Mephenesin was used as active placebo.

mice [2] = experiment: Muscular relaxing effect, Corneal Reflex Test (C.r), oral, mice; format: in vivo, dd Male mice; conditions: Mus musculus, read-out: Inhibition percent of the central muscular relaxing effect, C.r (Corneal Reflex Test)
Method: as §1
Corneal reflex was observed by using mandolin wire for 1/4 injection syringe.

mice [3] = experiment: Muscular relaxing effect, Pinna Reflex Test (P.r), oral, mice; format: in vivo, dd Male mice; conditions: Mus musculus, read-out: Inhibition percent of the central muscular relaxing effect, P.r (Pinna Reflex Test)
Method: as §1
Pinna reflex was observed by using mandolin wire for 1/4 injection syringe.

[4] = system: carrageenan-induced edema in rats; experiment: Antiinflammatory effect on carrageenan-induced edema; format: in vivo, Wistar male rats; conditions: Table 6
Method: […] One hour after the administration of the test compounds, the hind paw was given a subcutaneous injection of 0.05ml of 0.5% carrageenan saline solution, and volume of the hind paw was measured at 1, 2, 3, 4, 5 and 6 hours after the injection of carrageenan by a volume differential meter. Inhibitory percent was calculated based on the swelling in the control. Phenybutazone was used as active placebo.

mice [5] = experiment: Muscular relaxing effect, Traction Test (T.T), oral, mice; format: in vivo, dd Male mice; conditions: Mus musculus, read-out: Inhibition percent of the central muscular relaxing effect, T.T (Traction Test)
Method: as §1

mice [6] = experiment: Muscular relaxing effect, Inclined Plane Test (I.P), oral, mice; format: in vivo, dd Male mice; conditions: Mus musculus, read-out: Inhibition percent of the central muscular relaxing effect, I.P (Inclined Plane Test)
Method: as §1
Mice were placed on veneer inclined at an angle of 30° and on wire-netting inclined at an angle of 60° of which one division is 5 mm square, and mice sliding down were observed as positive, in comparison with normal behavior.

mice [7] = experiment: Muscular relaxing effect, Rotarod Method (R.R), oral, mice; format: in vivo, dd Male mice; conditions: Mus musculus, read-out: Inhibition percent of the central muscular relaxing effect, R.R (Rotarod Method)
Method: as §1
Mice were placed on Rotar Load (made by Natsume Seisakusho Co., Ltd.) having a diameter of 3 cm rotating at a speed of 10 rpm and falling (occurring within 3 minutes) was observed.

## CCc1ccccc1CC1CNC(=O)O1 (centres unmarked) [Compound VI, 5-(o-ethylbenzyl)-2-oxazolidone]
Mice [1]; Table 2, 500 mg/kg, oral, mice
  responders at 500 mg/kg: 10%
Mice [2]; Table 2, 500 mg/kg, oral, mice
  responders at 500 mg/kg: 0%
Mice [3]; Table 2, 500 mg/kg, oral, mice
  responders at 500 mg/kg: 10%
[4]; 100 mg/kg oral
  Inhibitory per cent, carrageenan-induced edema, 1 hr: 27.8 per cent
  Inhibitory per cent, carrageenan-induced edema, 2 hrs.: 36.3 per cent
  Inhibitory per cent, carrageenan-induced edema, 3 hrs.: 53.6 per cent
  Inhibitory per cent, carrageenan-induced edema, 4 hrs.: 28.9 per cent
  Inhibitory per cent, carrageenan-induced edema, 5 hrs.: 22.0 per cent
  Inhibitory per cent, carrageenan-induced edema, 6 hrs.: 17.4 per cent
Mice [5]; Table 2, 500 mg/kg, oral, mice
  responders at 500 mg/kg: 40%
Mice [6]; Table 2, 500 mg/kg, oral, mice
  responders at 500 mg/kg: 50%
Mice [7]; Table 2, 500 mg/kg, oral, mice
  responders at 500 mg/kg: 60%

## C=CCOc1ccccc1CC1CNC(=O)O1 (centres unmarked) [Compound X, 5-(o-allyloxybenzyl)-2-oxazolidone]
Mice [1]; Table 2, 500 mg/kg, oral, mice
  responders at 500 mg/kg: 30%
Mice [2]; Table 2, 500 mg/kg, oral, mice
  responders at 500 mg/kg: 0%
Mice [3]; Table 2, 500 mg/kg, oral, mice
  responders at 500 mg/kg: 40%
Mice [5]; Table 2, 500 mg/kg, oral, mice
  responders at 500 mg/kg: 40%
Mice [6]; Table 2, 500 mg/kg, oral, mice
  responders at 500 mg/kg: 40%
Mice [7]; Table 2, 500 mg/kg, oral, mice
  responders at 500 mg/kg: 80%

## O=C1NCC(Cc2ccc(F)cc2)O1 (centres unmarked) [Compound XI, 5-(p-fluorobenzyl)-2-oxazolidone]
Mice [1]; Table 2, 500 mg/kg, oral, mice
  responders at 500 mg/kg: 10%
Mice [2]; Table 2, 500 mg/kg, oral, mice
  responders at 500 mg/kg: 0%
Mice [3]; Table 2, 500 mg/kg, oral, mice
  responders at 500 mg/kg: 60%
[4]; 200 mg/kg oral
  Inhibitory per cent, carrageenan-induced edema, 1 hr: 38.3 per cent
  Inhibitory per cent, carrageenan-induced edema, 2 hrs.: 47.5 per cent
  Inhibitory per cent, carrageenan-induced edema, 3 hrs.: 44.5 per cent
  Inhibitory per cent, carrageenan-induced edema, 4 hrs.: 34.4 per cent
  Inhibitory per cent, carrageenan-induced edema, 5 hrs.: 9.2 per cent
  Inhibitory per cent, carrageenan-induced edema, 6 hrs.: 8.9 per cent
Mice [5]; Table 2, 500 mg/kg, oral, mice
  responders at 500 mg/kg: 90%
Mice [6]; Table 2, 500 mg/kg, oral, mice
  responders at 500 mg/kg: 80%
Mice [7]; Table 2, 500 mg/kg, oral, mice
  responders at 500 mg/kg: 100%

## O=C1NCC(Cc2ccccc2-c2ccccc2)O1 (centres unmarked) [Compound XIV, 5-(o-phenylbenzyl)-2-oxazolidone]
[4]; 100 mg/kg oral
  Inhibitory per cent, carrageenan-induced edema, 1 hr: 12.9 per cent
  Inhibitory per cent, carrageenan-induced edema, 2 hrs.: 35.2 per cent
  Inhibitory per cent, carrageenan-induced edema, 3 hrs.: 40.0 per cent
  Inhibitory per cent, carrageenan-induced edema, 4 hrs.: 15.6 per cent
  Inhibitory per cent, carrageenan-induced edema, 5 hrs.: 9.1 per cent

## O=C1NCC(Cc2ccccc2Oc2ccccc2)O1 (centres unmarked) [Compound XV, 5-(o-phenoxybenzyl)-2-oxazolidone]
[4]; 100 mg/kg oral
  Inhibitory per cent, carrageenan-induced edema, 1 hr: 59.5 per cent
  Inhibitory per cent, carrageenan-induced edema, 2 hrs.: 57.1 per cent
  Inhibitory per cent, carrageenan-induced edema, 3 hrs.: 59.9 per cent
  Inhibitory per cent, carrageenan-induced edema, 4 hrs.: 30.8 per cent
  Inhibitory per cent, carrageenan-induced edema, 5 hrs.: 26.1 per cent
  Inhibitory per cent, carrageenan-induced edema, 6 hrs.: 23.2 per cent

## NC(=O)OCCCc1ccccc1 [GP, γ-phenylpropylcarbamate, reference compound]
Mice [1]; po
  responders at 500 mg/kg: 0%
Mice [2]; po
  responders at 500 mg/kg: 0%
Mice [3]; po
  responders at 500 mg/kg: 10%
Mice [5]; po
  responders at 500 mg/kg: 40%
Mice [6]; po
  responders at 500 mg/kg: 30%
Mice [7]; po
  responders at 500 mg/kg: 60%
